Experimental findings from US20160278381A1, “Agricultural And Horticultural Fungicidal Composition And Method Of Use Of the Same” (NIHON NOHYAKU CO., LTD., priority 2015, published 2016) are described below.

The structures appear in SMILES notation.

The subject of the assay is Pythium aphanidermatum. The experiment in a line: Test Example 1: spray on lawn grass sods, inoculation with Pythium aphanidermatum, control value from lesion diameter. Type of assay: in vivo. Particulars: for Control Value (%): alone, lesion diameter seven days after inoculation; for efficacy against Pythium aphanidermatum: treated each alone. From the text: With a hand spray, chemical agents (no spreader added) prepared from commercial formulations at the predetermined concentrations were sprayed with the volume of 0.25 l/m^2. Seven days after the final spraying, with a hole cutter (10 cm in diameter), two sods were cut out, transferred into a greenhouse and inoculated with Pythium aphanidermatum.
For the test plot for the present invention, chemical solutions of tiadinil and chlorothalonil were each prepared, and each of the chemical solutions were blended for use as compositions and combinations.
Seven days after the inoculation, lesion diameters in each treated plots and the untreated plot were measured for calculating the control values for each treated plots using an equation below.
In general, in a case, where two active ingredients given are mixed and treated, if the actual efficacy measured is larger than the Colby's expectation value (E) calculated using the Colby's equation below, wherein value (E) is interpreted to denote an expected control value (%) which is predicted by the combination of the two active ingredients, the function achieved by the combination of the two active ingredients is determined to be synergistic.
(wherein X represents the preventive value (%) of one of the active ingredients and Y represents the preventive value (%) of the other active ingredient.)

With `N#Cc1c(Cl)c(Cl)c(Cl)c(C#N)c1Cl` [Chlorothalonil, chlorothalonil], the “efficacy against Pythium aphanidermatum” value was “did not show sufficient efficacy”. Further, the “Control Value (%)” value (dose 1.1 fl oz/1,000 ft^2) turned out to be 22%.

On to `Cc1ccc(NC(=O)c2snnc2C)cc1Cl` [Tiadinil, tiadinil], for which the “efficacy against Pythium aphanidermatum” value was “did not show sufficient efficacy”. For the same compound, the “Control Value (%)” value (dose 0.15625 fl oz/1,000 ft^2) came out at 11%. Further, the “Control Value (%)” value (dose 0.3125 fl oz/1,000 ft^2) stood at 11%. Where the note is “dose 0.625 fl oz/1,000 ft^2”, the “Control Value (%)” value is 22%. Further, the “Control Value (%)” value (dose 1.25 fl oz/1,000 ft^2) was 22%.
